Results reported in PubChem BioAssay (NCI).
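In this assay, cells in 96-well plates receive the compound at five concentrations for 48 hours. Endpoints are linearly interpolated between the surrounding concentrations. TGI denotes the concentration required for complete inhibition of growth.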

Key:
Test in all cases: NCI-60 cell line screen, 48 h
HOP-62 NSCLC = test system: HOP-62 NSCLC
MOLT-4 leukemia = test system: MOLT-4 leukemia
SR leukemia = test system: SR leukemia
UO-31 renal = test system: UO-31 renal
SK-OV-3 ovarian = test system: SK-OV-3 ovarian
ACHN renal = test system: ACHN renal
KM12 colon = test system: KM12 colon
SK-MEL-2 melanoma = test system: SK-MEL-2 melanoma
SF-268 CNS = test system: SF-268 CNS
OVCAR-5 ovarian = test system: OVCAR-5 ovarian
DMS 114 small cell lung = test system: DMS 114 small cell lung
HL-60(TB) leukemia = test system: HL-60(TB) leukemia
UACC-257 melanoma = test system: UACC-257 melanoma
TK-10 renal = test system: TK-10 renal
MALME-3M melanoma = test system: MALME-3M melanoma
CAKI-1 renal = test system: CAKI-1 renal
U251 CNS = test system: U251 CNS
RPMI-8226 leukemia = test system: RPMI-8226 leukemia
SNB-78 CNS = test system: SNB-78 CNS
LXFL 529 NSCLC = test system: LXFL 529 NSCLC
SNB-75 CNS = test system: SNB-75 CNS
COLO 205 colon = test system: COLO 205 colon
OVCAR-4 ovarian = test system: OVCAR-4 ovarian
NCI-H522 lung = test system: NCI-H522 lung
OVCAR-3 ovarian = test system: OVCAR-3 ovarian
CCRF-CEM leukemia = test system: CCRF-CEM leukemia
NCI-H23 lung = test system: NCI-H23 lung
HOP-92 NSCLC = test system: HOP-92 NSCLC
RXF 393 renal = test system: RXF 393 renal
SF-295 CNS = test system: SF-295 CNS
UACC-62 melanoma = test system: UACC-62 melanoma
SF-539 CNS = test system: SF-539 CNS
NCI-H460 lung = test system: NCI-H460 lung
K-562 leukemia = test system: K-562 leukemia
SK-MEL-28 melanoma = test system: SK-MEL-28 melanoma
HT29 colon = test system: HT29 colon
M19-MEL melanoma = test system: M19-MEL melanoma
M14 melanoma = test system: M14 melanoma
SNB-19 CNS = test system: SNB-19 CNS
HCT-116 colon = test system: HCT-116 colon
IGROV1 ovarian = test system: IGROV1 ovarian
OVCAR-8 ovarian = test system: OVCAR-8 ovarian
786-0 renal = test system: 786-0 renal
SW-620 colon = test system: SW-620 colon
SN12C renal = test system: SN12C renal
NCI-H226 lung = test system: NCI-H226 lung
HCC-2998 colon = test system: HCC-2998 colon
LOX IMVI melanoma = test system: LOX IMVI melanoma
KM20L2 colon = test system: KM20L2 colon
EKVX NSCLC = test system: EKVX NSCLC
A549 NSCLC = test system: A549 NSCLC
DMS 273 small cell lung = test system: DMS 273 small cell lung

With `CCCC(=O)OC[n+]1ccc2c(C)c3[nH]c4ccc(OC)cc4c3c(C)c2c1` the TGI (HOP-62 NSCLC) was 3.08 µM, the TGI (MOLT-4 leukemia) was 0.322 µM and the TGI (SR leukemia) was 2.89 µM. For the same compound, the TGI (UO-31 renal) was 6.38 µM, the TGI (SK-OV-3 ovarian) was 14.9 µM and the TGI (ACHN renal) was 7.47 µM. For the same compound, the TGI (KM12 colon) was 1.77 µM, the TGI (SK-MEL-2 melanoma) was 7.12 µM and the TGI (SF-268 CNS) was > 100 µM. For the same compound, the TGI (OVCAR-5 ovarian) was 2.31 µM, the TGI (DMS 114 small cell lung) was 3.78 µM and the TGI (HL-60(TB) leukemia) was 1.82 µM. For the same compound, the TGI (UACC-257 melanoma) was > 100 µM, the TGI (TK-10 renal) was 20.1 µM and the TGI (MALME-3M melanoma) was > 100 µM. For the same compound, the TGI (CAKI-1 renal) was 13.6 µM, the TGI (U251 CNS) was > 100 µM and the TGI (RPMI-8226 leukemia) was 0.54 µM.
`Cc1c(-c2c(C)c(=O)c3c(C(C)C)c(=O)c(=O)c(C=O)c-3c2=O)c(O)c2c(C=O)c(O)c(O)c(C(C)C)c2c1O` was tested, and the TGI (SNB-78 CNS) was 6.78 µM, the TGI (HOP-62 NSCLC) was 14.3 µM and the TGI (MOLT-4 leukemia) was 11.3 µM. It also gave a TGI (SR leukemia) of 17.1 µM, a TGI (UO-31 renal) of 5.5 µM and a TGI (LXFL 529 NSCLC) of 12.8 µM. The TGI (SK-OV-3 ovarian) was 13 µM, the TGI (ACHN renal) was 10.3 µM and the TGI (SNB-75 CNS) was 26.2 µM. The TGI (COLO 205 colon) was 11.8 µM, the TGI (KM12 colon) was 4.9 µM and the TGI (SK-MEL-2 melanoma) was 3.68 µM. It also gave a TGI (OVCAR-4 ovarian) of 12 µM, a TGI (SF-268 CNS) of 18.8 µM and a TGI (NCI-H522 lung) of 15.7 µM. For the same compound, the TGI (OVCAR-3 ovarian) was 7.02 µM, the TGI (CCRF-CEM leukemia) was 5.07 µM and the TGI (NCI-H23 lung) was 10.5 µM. For the same compound, the TGI (HOP-92 NSCLC) was 7.49 µM, the TGI (OVCAR-5 ovarian) was 7.82 µM and the TGI (DMS 114 small cell lung) was 5.82 µM. The TGI (RXF 393 renal) was 6.99 µM, the TGI (SF-295 CNS) was 3.94 µM and the TGI (UACC-62 melanoma) was 8.14 µM. The TGI (SF-539 CNS) was 8.87 µM, the TGI (NCI-H460 lung) was 11.8 µM and the TGI (K-562 leukemia) was 10.7 µM. It also gave a TGI (HL-60(TB) leukemia) of 11.1 µM, a TGI (SK-MEL-28 melanoma) of 16.4 µM and a TGI (UACC-257 melanoma) of 13.6 µM. It also gave a TGI (HT29 colon) of 4.87 µM, a TGI (M19-MEL melanoma) of 15.4 µM and a TGI (M14 melanoma) of 4.24 µM. For the same compound, the TGI (SNB-19 CNS) was 17.6 µM, the TGI (HCT-116 colon) was 7.81 µM and the TGI (MALME-3M melanoma) was 15.2 µM. It also gave a TGI (IGROV1 ovarian) of 11.3 µM, a TGI (U251 CNS) of 11.3 µM and a TGI (RPMI-8226 leukemia) of 9.9 µM.
For `c1ccc2nc(-c3ccc4c(c3)OCO4)ccc2c1`, the TGI (SNB-78 CNS) was > 100 µM, the TGI (OVCAR-8 ovarian) was > 100 µM and the TGI (HOP-62 NSCLC) was 79.5 µM. The TGI (SR leukemia) was 43.9 µM, the TGI (UO-31 renal) was 93.3 µM and the TGI (786-0 renal) was > 100 µM. The TGI (LXFL 529 NSCLC) was > 100 µM, the TGI (ACHN renal) was > 100 µM and the TGI (SNB-75 CNS) was > 100 µM. The TGI (SW-620 colon) was > 100 µM, the TGI (COLO 205 colon) was > 100 µM and the TGI (KM12 colon) was > 100 µM. The TGI (SK-MEL-2 melanoma) was > 100 µM, the TGI (SN12C renal) was > 100 µM and the TGI (NCI-H226 lung) was 97.6 µM. The TGI (OVCAR-4 ovarian) was > 100 µM, the TGI (SF-268 CNS) was > 100 µM and the TGI (NCI-H522 lung) was > 100 µM. For the same compound, the TGI (OVCAR-3 ovarian) was 71.1 µM, the TGI (NCI-H23 lung) was > 100 µM and the TGI (HOP-92 NSCLC) was 19 µM. For the same compound, the TGI (OVCAR-5 ovarian) was > 100 µM, the TGI (DMS 114 small cell lung) was 67.5 µM and the TGI (RXF 393 renal) was 58.9 µM. For the same compound, the TGI (SF-295 CNS) was > 100 µM, the TGI (SF-539 CNS) was > 100 µM and the TGI (NCI-H460 lung) was > 100 µM. For the same compound, the TGI (HL-60(TB) leukemia) was > 100 µM, the TGI (SK-MEL-28 melanoma) was > 100 µM and the TGI (UACC-257 melanoma) was 48.7 µM. The TGI (HCC-2998 colon) was > 100 µM, the TGI (TK-10 renal) was > 100 µM and the TGI (HT29 colon) was 79.7 µM. For the same compound, the TGI (LOX IMVI melanoma) was 82.7 µM, the TGI (M14 melanoma) was > 100 µM and the TGI (SNB-19 CNS) was > 100 µM. The TGI (KM20L2 colon) was > 100 µM, the TGI (MALME-3M melanoma) was 68 µM and the TGI (EKVX NSCLC) was > 100 µM. For the same compound, the TGI (CAKI-1 renal) was > 100 µM, the TGI (U251 CNS) was > 100 µM and the TGI (A549 NSCLC) was > 100 µM. For the same compound, the TGI (DMS 273 small cell lung) was 62.8 µM.
